Values joined by “and” are separate entries in the source; they are usually repeats but may differ in a detail not shown here. Equal entries are not always repeated. Where two headings read alike, the source gives them in different places. Peptide text beside a SMILES is read from it. * marks the point of attachment. Cbz = O=C(OCc1ccccc1)*
How the values were obtained:
CatL [1] = molecular target: T1, CatL (Homo sapiens, UniProt P07711, T223A); assay: NanoDSF, thermal stability of CatL; assay type: binding
T1 construct: made in house; host or cells: Komagataella pastoris strain GS115
T1 sequence (P07711 114-333 T223A): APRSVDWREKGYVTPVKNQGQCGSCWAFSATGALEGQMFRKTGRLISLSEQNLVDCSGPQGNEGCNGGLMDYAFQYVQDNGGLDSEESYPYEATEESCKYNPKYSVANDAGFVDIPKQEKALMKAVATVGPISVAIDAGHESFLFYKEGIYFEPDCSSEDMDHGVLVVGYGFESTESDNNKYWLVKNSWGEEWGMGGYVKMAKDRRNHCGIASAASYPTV

SARS-CoV-2 Mpro = SARS-CoV-2 Mpro (Severe acute respiratory syndrome coronavirus 2, UniProt P0DTD1); assay type: binding; details: for ΔTm (for Mpro), 2:1 compound to protein mixing ratio: 8 µM Mpro, pH 7.5, 2% DMSO; for 2:1, Tm average (Mpro): 2:1 compound to protein
[2] = Cell viability assay (CellTiter-Blue); details: African green monkey
CatL [3] = molecular target: T1, CatL; assay: CatL inhibition assay (Ki), substrate Z-RR-AMC; assay type: biochemical
Description: Experiments were performed in a solution of 50 mM sodium acetate, pH 4.0, 50 mM NaCl, 0.1% PEG 6000, and 5 mM DTT. Distinct assays with epoxide inhibitors at pH 6.0 were performed in 50 mM sodium phosphate buffer, 50 mM NaCl, 5 mM DTT, 0.1% PEG 6000, adjusted to pH 6.0.
M1000 pro plate reader (Tecan), the fluorescent peptide substrate Z-RR-AMC, and excitation and emission wavelengths of 370 and 460 nm, respectively.
At first, the inhibitor concentration span was optimized for each inhibitor and the assay buffer. For this initial screening, CatL (5 nM) was mixed with different concentrations of inhibitors (1 nM–50 μM) to determine the range of their inhibition. […] Reaction data were fitted to the […] in GraphPad Prism 9 software: Y = bottom + (top – bottom)/(1 + 10^∧((log IC50 – X) × HillSlope)); X is the log of dose or concentration, Y is the response (fluorescence signal), decreasing as X increases, top and bottom are the plateaus in the same units as Y, log IC50 same log units as X, HillSlope is the slope factor or called the Hill slope.

[4] = 5 µM CatL, pH 5.0, 2% DMSO, 20:1

Compound: Cc1ccc(S(=O)(=O)N[C@@H](Cc2ccccc2)C(=O)CCl)cc1 [TPCK, N-α-Tosyl-L-phenylalanyl chloromethyl ketone]
- 2:1, Tm average (CatL) (CatL [1]): 67.8 °C
- ΔTm [K] for CatL, 2:1 ratio (CatL [1]): 4.7 ± 0.1 K
- ΔTm (for CatL), 2:1 compound to protein mixing ratio (CatL [1]; pH 5): 4,7 ± 0,1 °C and 4.7 °C
- ΔTm (for CatL), 20:1 compound to protein mixing ratio (CatL [1]; pH 5): 7,0 ± 0,1 °C and 7 °C

Compound: CC(C)(C)OC(=O)NCC=O [BOCA, tert-Butyl N-2-oxoethylcarbamate]
- ΔTm (for CatL), 20:1 compound to protein mixing ratio (CatL [1]; [4]): 4,4 ± 0,4 °C and 4.4 °C
- 2:1, Tm average (CatL) (CatL [1]; 2:1 compound to protein): 62.8 °C
- 20:1, Tm average (CatL) (CatL [1]; 20:1 compound to protein): 67.5 °C
- ΔTm [K] for CatL, 2:1 ratio (CatL [1]; Table S1, 2:1 ratio): -0.3 ± 0.1 K
- ΔTm (for Mpro), 2:1 compound to protein mixing ratio (SARS-CoV-2 Mpro): -0,3 ± 0,1 °C
- ΔTm (for Mpro), 2:1 compound to protein mixing ratio (SARS-CoV-2 Mpro; listed as N-BOCAAA): -0.3 °C
- 2:1, Tm average (Mpro) (SARS-CoV-2 Mpro): 54.7 °C

Compound: CC[C@@H](C)[C@H](NS(=O)(=O)c1cccc2ccccc12)C(=O)N[C@H](C=O)Cc1c[nH]c2ccccc12 [CLIIV]
- viability at 48 h, 1e-05 µM [2]: 98.8%
- viability at 48 h, 0.0001 µM [2]: 101%
- viability at 48 h, 0.001 µM [2]: 98%
- viability at 48 h, 0.01 µM [2]: 100%
- viability at 48 h, 0.1 µM [2]: 98.7%
- viability at 48 h, 1 µM [2]: 102%
- viability at 48 h, 10 µM [2]: 101%

Compound: CC(=O)N[C@@H](CC(C)C)C(=O)N[C@@H](CC(C)C)C(=O)N[C@H](C=O)CCCNC(=N)N [Leupeptin]
- ΔTm (for Mpro), 2:1 compound to protein mixing ratio (SARS-CoV-2 Mpro): 1,2 ± 0,1 °C and 1.2 °C
- 2:1, Tm average (Mpro) (SARS-CoV-2 Mpro): 56.2 °C

Compound: CCOC(=O)[C@H]1O[C@@H]1C(=O)N[C@@H](CC(C)C)C(=O)NCCC(C)C [E-64d, Ethyl (2S,3S)-3-[[(2S)-4-methyl-1-(3-methylbutylamino)-1-oxopentan-2-yl]carbamoyl]oxirane-2-carboxylate]
- ΔTm (for CatL), 2:1 compound to protein mixing ratio (CatL [1]; 5 µM CatL, pH 5.0, 2% DMSO, 2:1): 4,5 ± 0,1 °C and 4.5 °C
- ΔTm (for CatL), 20:1 compound to protein mixing ratio (CatL [1]; [4]): 11,7 ± 0,4 °C and 11.7 °C
- 2:1, Tm average (CatL) (CatL [1]; 2:1 compound to protein): 67.6 °C
- 20:1, Tm average (CatL) (CatL [1]; 20:1 compound to protein): 74.8 °C
- ΔTm [K] for CatL, 2:1 ratio (CatL [1]; Table S1, 2:1 ratio): 4.5 ± 0.1 K
- ΔTm (for Mpro), 2:1 compound to protein mixing ratio (SARS-CoV-2 Mpro): -0,3 ± 0,3 °C
- ΔTm (for Mpro), 2:1 compound to protein mixing ratio (SARS-CoV-2 Mpro; listed as E-64d/Aloxistatin): -0.3 °C
- 2:1, Tm average (Mpro) (SARS-CoV-2 Mpro): 54.7 °C

Compound: CC(C)C[C@@H](C=O)NC(=O)[C@@H](NS(=O)(=O)c1ccc(F)cc1)C(C)C [CIVI]
- viability at 48 h, 1e-05 µM [2]: 95.9%
- viability at 48 h, 0.0001 µM [2]: 96.7%
- viability at 48 h, 0.001 µM [2]: 93.8%
- viability at 48 h, 0.01 µM [2]: 95.9%
- viability at 48 h, 0.1 µM [2]: 95.1%
- viability at 48 h, 1 µM [2]: 98.8%
- viability at 48 h, 10 µM [2]: 98.3%

Compound: CCCC(NC(=O)C(CC(C)C)NC(=O)OCc1ccccc1)C(=O)C(=O)NCc1ccccn1 (stereo not shown) [CIXII]
- viability at 48 h, 1e-05 µM [2]: 98.9%
- viability at 48 h, 0.0001 µM [2]: 98.8%
- viability at 48 h, 0.001 µM [2]: 98.3%
- viability at 48 h, 0.01 µM [2]: 100%
- viability at 48 h, 0.1 µM [2]: 98.8%
- viability at 48 h, 1 µM [2]: 103%
- viability at 48 h, 10 µM [2]: 106%

Compound: CN(C)C(=O)COC(=O)Cc1ccc(OC(=O)c2ccc(NC(=N)N)cc2)cc1 [Camostat]
- ΔTm (for CatL), 20:1 compound to protein mixing ratio (CatL [1]; [4]): -0.2 °C
- 20:1, Tm average (CatL) (CatL [1]; 20:1 compound to protein): 62.9 °C
- ΔTm (for Mpro), 2:1 compound to protein mixing ratio (SARS-CoV-2 Mpro): -0.4 °C
- 2:1, Tm average (Mpro) (SARS-CoV-2 Mpro): 54.6 °C

Compound: CC(C)[C@H](NC(=O)OCc1ccccc1)C(=O)N[C@H](C=O)Cc1ccccc1 [CI-III, N-Cbz-Val-Phe-aldehyde] (Cbz-Val-Phe-aldehyde)
- 2:1, Tm average (CatL) (CatL [1]; 2:1 compound to protein): 75.2 °C
- 20:1, Tm average (CatL) (CatL [1]; 20:1 compound to protein): 81.2 °C
- 2:1, Tm average (Mpro) (SARS-CoV-2 Mpro): 54.5 °C
- remaining activity at 0.000282 µM (CatL [3]; read-out: Residual activity (Vi/V0), CI-III 0.282 nM): 60.4%
- remaining activity at 0.000404 µM (CatL [3]; read-out: Residual activity (Vi/V0), CI-III 0.404 nM): 45.4%
- remaining activity at 0.000576 µM (CatL [3]; read-out: Residual activity (Vi/V0), CI-III 0.576 nM): 33.4%
- remaining activity at 0.000824 µM (CatL [3]; read-out: Residual activity (Vi/V0), CI-III 0.824 nM): 23.1%
- remaining activity at 0.001176 µM (CatL [3]; read-out: Residual activity (Vi/V0), CI-III 1.176 nM): 16.3%
- remaining activity at 0.001681 µM (CatL [3]; read-out: Residual activity (Vi/V0), CI-III 1.681 nM): 10.8%
- remaining activity at 0.002401 µM (CatL [3]; read-out: Residual activity (Vi/V0), CI-III 2.401 nM): 6.67%
- remaining activity at 0.00343 µM (CatL [3]; read-out: Residual activity (Vi/V0), CI-III 3.430 nM): 4.1%

Compound: CC(C)[C@H](NC(=O)OCc1ccccc1)C(=O)N[C@H](C=O)Cc1ccccc1 [CIII] (Cbz-Val-Phe-aldehyde)
- viability at 48 h, 1e-05 µM [2]: 95.8%
- viability at 48 h, 0.0001 µM [2]: 95.4%
- viability at 48 h, 0.001 µM [2]: 94.2%
- viability at 48 h, 0.01 µM [2]: 95.3%
- viability at 48 h, 0.1 µM [2]: 96%
- viability at 48 h, 1 µM [2]: 98.9%
- viability at 48 h, 10 µM [2]: 100%

Compound: CC(C)(C)OC(=O)Nc1cccn([C@@H](CC2CC2)C(=O)N[C@@H](C[C@@H]2CCNC2=O)C(=O)C(=O)NCc2ccccc2)c1=O [13b, tert-Butyl N-[1-[(2S)-1-[[(2S)-4-(benzylamino)-3,4-dioxo-1-[(3S)-2-oxopyrrolidin-3-yl]butan-2-yl]amino]-3-cyclopropyl-1-oxopropan-2-yl]-2-oxopyridin-3-yl]carbamate]
- 2:1, Tm average (CatL) (CatL [1]): 68.7 °C
- 20:1, Tm average (CatL) (CatL [1]): 76.7 °C
- ΔTm (for CatL), 2:1 compound to protein mixing ratio (CatL [1]; pH 5): 5,6 ± 0,1 °C and 5.6 °C
- ΔTm (for CatL), 20:1 compound to protein mixing ratio (CatL [1]; pH 5): 13,6 ± 0,1 °C and 13.6 °C
- ΔTm (for Mpro), 2:1 compound to protein mixing ratio (SARS-CoV-2 Mpro): 15,7 ± 0,1 °C and 15.7 °C
- 2:1, Tm average (Mpro) (SARS-CoV-2 Mpro): 70.3 °C
- Residual activity (Vi/V0) (CatL [3]; 13b 31.346 nM): 0.9675 and 0.9627 and 0.6897 and 0.9692 and 0.9864 and 0.9669
- Residual activity (Vi/V0) (CatL [3]; 13b 52.243 nM): 0.8888 and 0.9182 and 0.9209 and 0.8812 and 0.9125
- remaining activity at 0.052243 µM (CatL [3]; 13b 52.243 nM, read-out: Residual activity (Vi/V0)): 90.6%
- Residual activity (Vi/V0) (CatL [3]; 13b 87.071 nM): 0.8265 and 0.8739 and 0.8771 and 0.8407 and 0.8552
- remaining activity at 0.087071 µM (CatL [3]; 13b 87.071 nM, read-out: Residual activity (Vi/V0)): 84.2%
- Residual activity (Vi/V0) (CatL [3]; 13b 145.119 nM): 0.7626 and 0.6965 and 0.7661 and 0.7352 and 0.7663
- remaining activity at 0.145119 µM (CatL [3]; 13b 145.119 nM, read-out: Residual activity (Vi/V0)): 77.4%
- Residual activity (Vi/V0) (CatL [3]; 13b 241.865 nM): 0.6661 and 0.7001 and 0.6736 and 0.645 and 0.6598
- Residual activity (Vi/V0) (CatL [3]; 13b 403.108 nM): 0.5626 and 0.5615 and 0.5111 and 0.5683 and 0.5779
- remaining activity at 0.403108 µM (CatL [3]; 13b 403.108 nM, read-out: Residual activity (Vi/V0)): 56.2%
- Residual activity (Vi/V0) (CatL [3]; 13b 671.846 nM): 0.4836 and 0.4354 and 0.4683 and 0.4708 and 0.465
- remaining activity at 0.671846 µM (CatL [3]; 13b 671.846 nM, read-out: Residual activity (Vi/V0)): 47.5%
- Residual activity (Vi/V0) (CatL [3]; 13b 1119.744 nM): 0.4051 and 0.4054 and 0.4004 and 0.3916 and 0.3989
- remaining activity at 1.11974 µM (CatL [3]; 13b 1119.744 nM, read-out: Residual activity (Vi/V0)): 38.3%
- Residual activity (Vi/V0) (CatL [3]; 13b 1866.240 nM): 0.3283 and 0.3165 and 0.3193 and 0.3153 and 0.3192
- remaining activity at 1.86624 µM (CatL [3]; 13b 1866.240 nM, read-out: Residual activity (Vi/V0)): 32.5%
- Residual activity (Vi/V0) (CatL [3]; 13b 3110.400 nM): 0.258 and 0.2535 and 0.24 and 0.2503 and 0.2489
- remaining activity at 3.1104 µM (CatL [3]; 13b 3110.400 nM, read-out: Residual activity (Vi/V0)): 24.7%
- Residual activity (Vi/V0) (CatL [3]; 13b 5184.000 nM): 0.1828 and 0.1618 and 0.1725 and 0.1795 and 0.1597
- Residual activity (Vi/V0) (CatL [3]; 13b 8640.000 nM): 0.1228 and 0.1221 and 0.1079 and 0.1237 and 0.1244
- remaining activity at 8.64 µM (CatL [3]; 13b 8640.000 nM, read-out: Residual activity (Vi/V0)): 12.4%
- Residual activity (Vi/V0) (CatL [3]; 13b 24000.000 nM): 0.04988 and 0.04656 and 0.04753 and 0.05569 and 0.04454
- remaining activity at 24 µM (CatL [3]; 13b 24000.000 nM, read-out: Residual activity (Vi/V0)): 4.42%
- Ki (CatL [3]; CatL, Z-RR-AMC, pH 4.0, 37 °C, read-out: Ki): 293 nM

From publication PMC11089505, “Structural Elucidation and Antiviral Activity of Covalent Cathepsin L Inhibitors” (Journal of Medicinal Chemistry, 2024)
